In BigSolDB 2.1:

CC[C@H]1OC(=O)[C@H](C)[C@@H](O[C@H]2C[C@@](C)(OC)[C@@H](O)[C@H](C)O2)[C@H](C)[C@@H](O[C@@H]2O[C@H](C)C[C@H](N(C)C)[C@H]2O)[C@](C)(O)C[C@@H](C)C(=O)[C@H](C)[C@@H](O)[C@]1(C)O.O.O
solubility (mole fraction)
Settings	293.2 K	298 K	303.15 K	308 K	313.1 K	318 K	323 K
in acetone	0.00914	0.0131	0.0217	0.0293	0.0433	0.0542	0.0804
in chloroform	0.00391	0.0054	0.00875	0.0134	0.0216	0.0313	0.0473
in ethanol	0.0148	0.0192	0.0254	0.0338	0.046	0.062	0.081
in isopropanol	0.003	0.00401	0.00556	0.00754	0.00995	0.0143	0.0194
in methanol	0.0116	0.0143	0.0179	0.0215	0.0253	0.0305	0.0373
in water	5.4e-05	4.7e-05	4.2e-05	4e-05	3.8e-05	3.5e-05	3.4e-05
